Test results as given in patent US9434743B2, “Indazole derivatives” (TAKEDA PHARMACEUTICAL COMPANY LIMITED, priority 2012, dated 2016).

How the values were obtained:
[1] = cited from earlier work
angiogenesis = settings: cited from earlier work
human MetAP2 enzyme [2] = target: T1, human MetAP2 enzyme (Homo sapiens, UniProt P50579); assay: MetAP2 enzyme assay, enzyme complexed with cobalt ions; settings: MetAP2 Co pIC50, MetAP2 enzyme complexed with cobalt ions; Met-AMC substrate at Km
human MetAP2 enzyme [3] = target: T1, human MetAP2 enzyme; assay: MetAP2 enzyme assay, enzyme complexed with manganese ions; settings: MetAP2 Mn pIC50, MetAP2 enzyme complexed with manganese ions; Met-AMC substrate at Km

T1 sequence (P50579 whole entry): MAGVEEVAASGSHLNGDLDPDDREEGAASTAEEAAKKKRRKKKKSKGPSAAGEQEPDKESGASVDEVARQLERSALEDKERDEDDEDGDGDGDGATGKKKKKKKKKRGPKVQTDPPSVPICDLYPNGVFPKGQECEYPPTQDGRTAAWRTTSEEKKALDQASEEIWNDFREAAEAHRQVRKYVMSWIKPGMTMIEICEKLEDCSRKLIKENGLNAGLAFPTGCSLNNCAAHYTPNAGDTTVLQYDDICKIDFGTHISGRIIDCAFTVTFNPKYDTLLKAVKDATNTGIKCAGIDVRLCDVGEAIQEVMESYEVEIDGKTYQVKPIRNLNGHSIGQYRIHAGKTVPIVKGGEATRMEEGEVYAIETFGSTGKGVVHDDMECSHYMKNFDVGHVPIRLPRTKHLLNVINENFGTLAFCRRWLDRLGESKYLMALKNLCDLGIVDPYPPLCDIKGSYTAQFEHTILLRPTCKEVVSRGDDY

IC50 (human MetAP2 enzyme [2]) [nM] | IC50 (human MetAP2 enzyme [3]) [nM] | Structure (SMILES) | effect on diet-induced obesity ([1]; diet-induced obesity in mice) | inhibition of angiogenesis (angiogenesis) | food intake, body weight, fat mass, size of adipocytes ([1]; genetically and diet-induced obese mice)
– | – | CO[C@@H]1[C@H](OC(=O)/C=C/C=C/C=C/C=C/C(=O)O)CC[C@]2(CO2)[C@H]1[C@@]1(C)O[C@@H]1CC=C(C)C [fumagillin] | impair diet-induced obesity | inhibit angiogenesis | –
– | – | CO[C@@H]1[C@H](OC(=O)/C=C/c2ccc(OCCN(C)C)cc2)CC[C@]2(CO2)[C@H]1[C@@]1(C)O[C@@H]1CC=C(C)C [CKD-732] | – | – | decrease food intake, body weight, fat mass, and the size of adipocytes
79.4 | 25.1 | COc1ccncc1-c1cc(C(F)(F)F)cc2[nH]ncc12 [Example 30, 4-(4-methoxypyridin-3-yl)-6-(trifluoromethyl)-1H-indazole] | – | – | –
50.1 | 10 | NC(=O)Cc1cccc(-c2cc(C(F)(F)F)cc3[nH]ncc23)c1 [Example 38, 2-(3-(6-(trifluoromethyl)-1H-indazol-4-yl)phenyl)acetamide] | – | – | –
126 | 15.8 | FC(F)(F)c1cc(-c2cccc3c2OCO3)c2cn[nH]c2c1 [Example 27, 4-(benzo[d][1,3]dioxol-4-yl)-6-(trifluoromethyl)-1H-indazole] | – | – | –
31.6 | 12.6 | Cc1ccc(C(=O)NCCO)cc1-c1cc(C(F)(F)F)cc2[nH]ncc12 [Example 368, N-(2-hydroxyethyl)-4-methyl-3-(6-(trifluoromethyl)-1H-indazol-4-yl)benzamide] | – | – | –
398 | 25.1 | Cc1nn(CC2(C)COC2)c(C)c1-c1cc(C(F)(F)F)cc2[nH]ncc12 [Example 380, 4-(3,5-dimethyl-1-((3-methyloxetan-3-yl)methyl)-1H-pyrazol-4-yl)-6-(trifluoromethyl)-1H-indazole] | – | – | –
31.6 | 12.6 | NC(=O)c1ccc(F)c(-c2cc(C(F)(F)F)cc3[nH]ncc23)c1 [Example 326, 4-fluoro-3-(6-(trifluoromethyl)-1H-indazol-4-yl)benzamide] | – | – | –
251 | 12.6 | Cc1[nH]cnc1-c1cc(C(F)(F)F)cc2[nH]ncc12 [Example 161, 4-(5-methyl-1H-imidazol-4-yl)-6-(trifluoromethyl)-1H-indazole] | – | – | –
251 | 12.6 | N#CCNC(=O)c1c[nH]c(=O)c(-c2cc(C(F)(F)F)cc3[nH]ncc23)c1 [Example 333, N-(cyanomethyl)-6-oxo-5-(6-(trifluoromethyl)-1H-indazol-4-yl)-1,6-dihydropyridine-3-carboxamide] | – | – | –
251 | 12.6 | FC(F)(F)c1cc(-c2c[nH]c3nccnc23)c2cn[nH]c2c1 [Example 157, 7-(6-(trifluoromethyl)-1H-indazol-4-yl)-5H-pyrrolo[2,3-b]pyrazine] | – | – | –
200 | 15.8 | FC(F)(F)c1cc(-c2ccncc2Cl)c2cn[nH]c2c1 [Example 49, 4-(3-chloropyridin-4-yl)-6-(trifluoromethyl)-1H-indazole] | – | – | –
126 | 7.94 | CN1CCN(C(=O)c2cc(-c3cc(C(F)(F)F)cc4[nH]ncc34)c[nH]c2=O)CC1 [Example 227, 3-(4-methylpiperazine-1-carbonyl)-5-(6-(trifluoromethyl)-1H-indazol-4-yl)pyridin-2(1H)-one] | – | – | –
1000 | 12.6 | Cn1cc(-c2cc(C(F)(F)F)cc3[nH]ncc23)c(=O)n(CCO)c1=O [Example 303, 3-(2-hydroxyethyl)-1-methyl-5-(6-(trifluoromethyl)-1H-indazol-4-yl)pyrimidine-2,4(1H,3H)-dione] | – | – | –
126 | 10 | CN1CCN(C(=O)c2cc(-c3cc(C(F)(F)F)cc4[nH]ncc34)c(=O)n(C)c2)CC1 [Example 375, 1-methyl-5-(4-methylpiperazine-1-carbonyl)-3-(6-(trifluoromethyl)-1H-indazol-4-yl)pyridin-2(1H)-one] | – | – | –
251 | 20 | Cc1nn(-c2nnn[nH]2)c(C)c1-c1cc(C(F)(F)F)cc2[nH]ncc12 [Example 169, 4-(3,5-dimethyl-1-(1H-tetrazol-5-yl)-1H-pyrazol-4-yl)-6-(trifluoromethyl)-1H-indazole] | – | – | –
